Results on four molecules are retold here after ChEMBL document CHEMBL1914428, “Investigating the role of the hydroxyl groups of substrate erythrose 4-phosphate in the reaction catalysed by the first enzyme of the shikimate pathway” (Bioorg Med Chem Lett, 2011).

Each structure is given as a SMILES string. Activity calls are given as the source filed them. The calls are words filed in the database; no cut-off is given here.

The test system of assay [1] is Escherichia coli. Nature of the assay: Activity of Escherichia coli phenylalanine-sensitive DAH7P synthase type 1alpha by spectrophotometry in the presence of Mn2+.
The test system of assay [2] is Mycobacterium tuberculosis. Nature of the assay: Activity of Mycobacterium tuberculosis DAH7P synthase type 2 by spectrophotometry in the presence of Mn2+.
Assay [3] relates to Pyrococcus furiosus. The assay can be described thus: Activity of Pyrococccus furiosus DAH7P synthase type 1beta by spectrophotometry in the presence of Mn2+.
The subject of assay [4] is Escherichia coli. The assay can be described thus: Ratio of Kcat to Km of Escherichia coli phenylalanine-sensitive DAH7P synthase type 1alpha.
For assay [5], the system named is Pyrococcus furiosus. The assay can be described thus: Ratio of Kcat to Km of Pyrococccus furiosus DAH7P synthase type 1beta.
Assay [6] has as its system Mycobacterium tuberculosis. The assay can be described thus: Ratio of Kcat to Km of Mycobacterium tuberculosis DAH7P synthase type 2.
For assay [7], the system named is Pyrococcus furiosus. Nature of the assay: Inhibition of Pyrococccus furiosus DAH7P synthase type 1beta.

As a reminder, the Km is the substrate concentration at which the rate is half of its maximum. In general, kcat refers to the maximal rate divided by the concentration of active sites. For orientation: kcat/Km means the second-order rate constant that governs catalysis at low substrate concentration. Regarding `O=C[C@H](O)CCOP(=O)(O)O`, the Km came to 2700 µM in the assay on Escherichia coli [1], 77 µM in assay [2] and 200 µM in the assay on Pyrococcus furiosus [3]. The results for the kcat (in the assay on Escherichia coli [1]; in assay [2]; with Pyrococcus furiosus [3]) were 4.5 s⁻¹, 2.4 s⁻¹ and 2.1 s⁻¹, respectively. The kcat/Km worked out at 2000 M⁻¹ s⁻¹ in the assay on Escherichia coli [4], 11000 M⁻¹ s⁻¹ in the assay with Pyrococcus furiosus [5] and 31000 M⁻¹ s⁻¹ in assay [6].
Turning to `O=CC(O)CCOP(=O)(O)O` (racemic), the Km in the assay with Escherichia coli [1] turned out to be 2600 µM. Further, the inhibition result in the assay on Pyrococcus furiosus [7] is “Active”.
As to `O=C[C@H](O)[C@H](O)COP(=O)(O)O`, the Km in the assay on Escherichia coli [1] amounted to 39 µM; in assay [2], 37 µM; with Pyrococcus furiosus [3], 9 µM. The kcat with Escherichia coli [1] worked out at 26 s⁻¹; in assay [2] it was 5.4 s⁻¹; with Pyrococcus furiosus [3], 1.4 s⁻¹. Besides, the kcat/Km was 670000 M⁻¹ s⁻¹ with Escherichia coli [4], 160000 M⁻¹ s⁻¹ in the assay with Pyrococcus furiosus [5] and 150000 M⁻¹ s⁻¹ in assay [6].
Regarding `O=CC[C@H](O)COP(=O)(O)O`, the Km in the assay on Escherichia coli [1] worked out at 410 µM; in assay [2], 46 µM; in the assay on Pyrococcus furiosus [3], 6 µM. The kcat in the assay with Escherichia coli [1] is 25 s⁻¹; in assay [2], 4.9 s⁻¹; in the assay on Pyrococcus furiosus [3], 3 s⁻¹. In addition, the results for the kcat/Km (in the assay on Escherichia coli [4]; in the assay on Pyrococcus furiosus [5]; in assay [6]) were 60000 M⁻¹ s⁻¹, 500000 M⁻¹ s⁻¹ and 110000 M⁻¹ s⁻¹, respectively.
